Laboratory results as given in patent US20230398119A1, “COMBINATION THERAPY INVOLVING DIARYL MACROCYCLIC COMPOUNDS” (TURNING POINT THERAPEUTICS, INC., priority 2019, published 2023).

Columns and labels:
[1] = system: patients with mutant KRAS NSCLC; conditions: Phase 2; trametinib compared to docetaxel; trial prematurely terminated; cited from earlier work
[2] = system: phosphorylation of AKT, ERK, FAK, STAT3 (NCI-H358); assay: Immunoblotting for cellular kinase phosphorylation; format: cell-based, human; conditions: NCI-H358 KRAS G12C; 0 to 3000 nM
Method: Half a million cells per well were seeded in 24 well plate for 24 hrs, and then treated with compounds for 4, 24 or 48 hours. Cells were collected after treatment and lysed in RIPA buffer (50 mM Tris, pH 7.4, 150 mM NaCl, 1% NP-40, 0.5% Deoxycholate, 0.1% SDS) supplemented with 10 mM EDTA, 1×Halt protease and phosphatase inhibitors (Thermo Scientific). Protein lysates (approximately 20 μg) was resolved on 4-12% Bolt Bis-Tris precasted gels with MES running buffer (Life Technologies), transferred to nitrocellulose membranes using Trans-Blot Turbo Transfer System (Bio-Rad) and detected with antibodies targeting phosphorylated STAT3, FAK, SRC, AKT, ERK, (Cell Signaling Technology), total STAT3, FAK, SRC, AKT, and ERK, (Cell Signaling Technology) Antibodies were typically incubated overnight at 4° C. with gentle shake, followed by washes and incubation with the appropriate HRP-conjugated secondary antibodies. Membranes were incubated with chemiluminescent substrate for 5 min at room temperature (SuperSignal West Femto, Thermo Scientific). The chemiluminescent images were acquired with a C-DiGit Imaging System (LI-COR Biosciences).

**Q.** Which “treatment response in the interim analysis” value [1] does the source give for `CC(=O)Nc1cccc(-n2c(=O)n(C3CC3)c(=O)c3c(Nc4ccc(I)cc4F)n(C)c(=O)c(C)c32)c1` [Trametinib, N-(3-{3-cyclopropyl-5-[(2-fluoro-4-iodophenyl)amino]-6,8-dimethyl-2,4,7-trioxo-3,4,6,7-tetrahydropyrido[4,3-d]pyrimidin-1(2H)-yl}phenyl)acetamide] here?
**A.** The value was “crossed the futility boundary”.

**Q.** With `C[C@H]1CNC(=O)c2cnn3ccc(nc23)N[C@H](C)c2cc(F)ccc2O1` [Compound 1, (7S,13R)-11-fluoro-7,13-dimethyl-6,7,13,14-tetrahydro-1,15-ethenopyrazolo[4,3-f][1,4,8,10]benzoxatriazacyclotridecin-4(5H)-one] as the compound, how does the “inhibition of phosphorylation of AKT” value [2] read?
**A.** Its value is “dose-dependent response”.

**Q.** What about the “inhibition of phosphorylation of ERK” value [2] of the same compound?
**A.** Its value is “dose-dependent response”.

**Q.** And the “inhibition of phosphorylation of FAK” value [2]?
**A.** The value was “dose-dependent response”.

**Q.** And the “inhibition of phosphorylation of STAT3” value [2]?
**A.** Its value is “dose-dependent response”.
